The text below walks through data of paper PMC8070829, “Discovery of New Coumarin-Based Lead with Potential Anticancer, CDK4 Inhibition and Selective Radiotheranostic Effect: Synthesis, 2D & 3D QSAR, Molecular Dynamics, In Vitro Cytotoxicity, Radioiodination, and Biodistribution Studies” (Molecules, 2021).

Usually pKi stands for −log10 of the Ki, conventionally taken in molar units. Broadly, the pIC50 is the negative decadic logarithm of the IC50, by convention in mol/L. The term melting point denotes the temperature of the solid-liquid transition.

Molecules are shown by their SMILES. pIC50, pKi: −log10 of the molar value. Like-named read-outs stand apart in the source and are kept apart here.

Series [1] has as its target CDK6. The settings on record: cited from earlier work.
The target in series [2] is CDK4. The following applies: cited from earlier work.
Series [3] has as its system CDK4. The following applies: cited from earlier work. This is another data set of the same source.
The subject of series [4] is MCF-7 cells. The series is described as follows: In vitro cytotoxicity, MCF-7. The following applies: Homo sapiens, MCF7, MCF-7 breast cancer cell line. Format: cell-based. An excerpt: (§1) Mammalian cell lines: MCF-7 cells (human breast cancer) cell line, A-549 (human Lung Carcinoma) and CHO-K1 cells (hamster ovary cancer) cell line were obtained from the American Type Culture Collection (ATCC, Rockville, MD). Fetal bovine serum, RPMI-1640, HEPES buffer solution, L-glutamine, gentamycin and 0.25% Trypsin-EDTA were purchased from Lonza (Belgium). All reagents and chemicals were of pharmaceutical pure grade. Non-carrier added Na^131I solution (pH = 7) was purchased from the Research and Production Facility, The Egyptian Atomic Energy Authority. Chemicals were purchased from Sigma Aldrich and Lonza. Monitoring of chemical reactions was done by using analytical TLC with Merck 60 F-254 silica-gel plates (Merck, Germany), and visualization was done with ultraviolet light.
(§2) Cytotoxicity study was performed at the Regional Centre for Mycology and Biotechnology (RCMB), Al-Azhar University. Mammalian cell lines: human breast cancer cell line (MCF-7 cells), human colon cancer cell line (HCT-116 cells), and human lung cancer cell line (A-549 cells) were obtained from VACSERA Tissue Culture Unit, Cairo, Egypt. The cells were propagated in Dulbecco’s modified Eagle’s medium supplemented with 10% heat-inactivated fetal bovine serum, 1% L-glutamine, HEPES buffer, and 50 μg/mL gentamycin. All cells were maintained at 37 °C in a humidified atmosphere with 5% CO2 and were subcultured two times a week. For the cytotoxicity assay, the cells were seeded in 96-well plate at a cell concentration of 1 × 10^4 cells per well in 100 μL of growth medium. Fresh medium containing different concentrations of the test sample was added after 24 h of seeding. Serial two-fold dilutions of the tested chemical compound were added to confluent cell monolayers dispensed into 96-well, flat-bottomed microtiter plates (Falcon, NJ, USA) using a multichannel pipette. The microtiter plates were incubated at 37 °C in a humidified incubator with 5% CO2 for a period of 48 h. Three wells were used for each concentration of the test sample. Control cells were incubated without test sample and with or without DMSO. The little percentage of DMSO present in the wells (maximal 0.1%) was found not to affect the experiment. After incubation of the cells for at 37 °C, various concentrations of sample were added, and the incubation was continued for 24 h, and viable cells yield was determined by a colorimetric method. In brief, after the end of the incubation period, media were aspirated, and the crystal violet solution (1%) was added to each well for at least 30 min. The stain was removed, and the plates were rinsed using tap water until all excess stain is removed. Glacial acetic acid (30%) was then added to all wells and mixed thoroughly, and then the absorbance of the plates was measured after gently shaken on a microplate reader, using a test wavelength of 490 nm. All results were corrected for background absorbance detected in wells without added stain. Treated samples were compared with the cell control in the absence of the tested compound. All experiments were carried out in triplicate. The cell cytotoxic effect of each tested compound was calculated. The optical density was measured with the microplate reader to determine the number of viable cells, and the percentage of […] was calculated as (1 − (ODt/ODc)) × 100% where ODt is the mean optical density of wells treated with the tested sample and ODc is the mean optical density of untreated cells. The relation between surviving cells and drug concentration is plotted to get the survival curve of each tumor cell line after treatment with the specified compound.

Series [5] deals with A-549 cells. The series is described as follows: In vitro cytotoxicity, A-549. It is filed as cell-based. The following applies: Homo sapiens, A549; A-549 cell line.
Description: as §1, §2

The target in series [6] is T1, CDK4 enzyme (Homo sapiens, UniProt P11802).
T1 construct: purchased Reaction Biology Corp. (Kinase HotSpot service)
T1 sequence (P11802 whole entry): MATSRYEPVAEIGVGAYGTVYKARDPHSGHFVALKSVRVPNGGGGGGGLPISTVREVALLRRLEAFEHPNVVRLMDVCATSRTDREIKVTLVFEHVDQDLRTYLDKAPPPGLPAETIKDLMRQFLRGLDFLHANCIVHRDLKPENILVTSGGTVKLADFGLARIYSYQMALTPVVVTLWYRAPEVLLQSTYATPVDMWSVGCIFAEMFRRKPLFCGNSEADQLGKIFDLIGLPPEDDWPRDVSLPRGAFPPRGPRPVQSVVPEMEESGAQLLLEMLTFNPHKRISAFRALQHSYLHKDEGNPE
T1 sequence (P24385 whole entry partner): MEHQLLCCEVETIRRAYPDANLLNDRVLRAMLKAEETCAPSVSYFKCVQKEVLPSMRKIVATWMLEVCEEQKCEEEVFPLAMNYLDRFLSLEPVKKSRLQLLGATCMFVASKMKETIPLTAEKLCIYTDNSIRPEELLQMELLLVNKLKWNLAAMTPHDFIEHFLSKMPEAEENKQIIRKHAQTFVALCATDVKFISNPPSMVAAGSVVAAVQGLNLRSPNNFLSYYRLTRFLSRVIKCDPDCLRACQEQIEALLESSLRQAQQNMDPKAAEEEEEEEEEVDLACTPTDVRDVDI
Description: CDK4 enzyme inhibition assay. Format: biochemical. The procedure:
Reaction Biology Corp. Kinase HotSpotSM service (http://www.reactionbiology.com, accessed on 1 April 2019) was used for screening of tested compounds. CDK4 Kinase inhibitory activities were assessed by the HotSpot assay platform, which contained specific kinase/substrate pairs along with required cofactors. Base reaction buffer: 20 mM Hepes (pH 7.5), 10 mM MgCl2, 1 mM EGTA, 0.02% Brij35, 0.02 mg/mL BSA, 0.1 mM Na3VO4, 2 mM DTT, 1% DMSO. Testing compounds were dissolved in 100% DMSO to specific concentration. The serial dilution was conducted in DMSO. The reaction mixture containing the examined compound and 33P-ATP was incubated at room temperature for 2 h and radioactivity was detected by the filter-binding method. Kinase activity data were expressed as the percent remaining kinase activity in test samples compared to vehicle (dimethyl sulfoxide) reactions.
For CDK4 enzyme inhibition, CDK4 ELISA kit, Cloud-Clone Corp, US was used. This kit is used for the in vitro quantitative measurement of CDK4 concentrations in tissue homogenates, cell lysates and other biological fluids with high sensitivity and specificity. The cancer cells were treated with different amounts of each compound according to the aforementioned protocol. In addition, the cells were lysed and then treated as instructed by the manufacturer’s protocol. The absorbance of each well was detected at 450 nm using an ELISA plate reader. The results are reported as half maximal inhibitory concentration (IC50).

Series [7] deals with CHO-K1 cells. Description: In vitro cytotoxicity, CHO-K1. Format: cell-based, hamster. The settings on record: CHO-K1 ovarian cell line.
Description: as §1, §2

Where [8] appears, read: N-aryl aminothiazoles, in vitro.

For the compound `CSc1nc(C)c(-c2ccnc(Nc3ccc(N4CCN(C)CC4)cn3)n2)s1` [VIIa], the pKi in series [1] is 7.38; in series [2], 8.15.
For `c1cnc(Nc2ncc(-c3ccnc(OC4CCCCC4)n3)s2)nc1` [Va], the pIC50 in series [3] (2-aminothiazoles of Banyu) is 8.38.
Consider `O=c1oc2ccc(Br)cc2cc1-c1csc(N/N=C/c2ccccc2)n1` [Compound 9a], for which the negative logarithm of the IC50 (pIC50) was 7.22 in series [4], 7.47 in series [5], 6.88 in series [6] and 7.04 in series [7].
Regarding `CC(C)(CO)CNCc1ccc(Nc2ncc(SCc3ncc(C(C)(C)C)o3)s2)nc1` [VIII], the negative-log IC50 (pIC50) in series [3] (setting [8]) was 7.59.
Take `CC(=NN=c1scc(-c2ccccc2)n1-c1ccccc1)c1cc2cc(Br)ccc2oc1=O` [Compound 4b, 6-Bromo-3-(1-((3,4-diphenylthiazol-2(3H)-ylidene)hydrazono)ethyl)-2H-chromen-2-one]: the melting point amounted to 234 °C. In series [4], this compound had a negative-log IC50 (pIC50) of 6.06. The compound further had a pIC50 in series [5] of 6.11. For the same compound, in series [7], the pIC50 is 6.01.
As for `C/C(=N\NC(=S)Nc1ccccc1)c1cc2cc(Br)ccc2oc1=O` [Compound 2b], the pIC50 is 7.82 in series [5], 7.44 in series [6] and 7.27 in series [7].
As for `O=c1oc2ccc(Br)cc2cc1-c1csc(NN=Cc2ccc(F)cc2)n1` [Compound 9f], the melting point was 278 °C. In series [4], this compound showed a pIC50 of 6.56. For the same compound, the pIC50 in series [5] is 6.70. Further, the negative logarithm of the IC50 (pIC50) in series [7] was 6.31.
On the same counts, the results for `CNC(=S)NN=C(C)c1cc2cc(Br)ccc2oc1=O` [Compound 2a] are 220 °C, 6.79, 6.35 and 6.22.
`Cc1ccc(C=NNc2nc(-c3cc4cc(Br)ccc4oc3=O)cs2)cc1` [Compound 9b] gave a melting point of 250 °C. This compound also had a pIC50 in series [4] of 6.53. Further, the negative logarithm of the IC50 (pIC50) in series [5] is 6.41. For the same compound, the negative-log IC50 (pIC50) in series [7] is 6.28.
On the same counts, the results for `COc1ccc(C=NNc2nc(-c3cc4cc(Br)ccc4oc3=O)cs2)cc1OC` [Compound 9c] are 238 °C, 6.32, 6.61 and 6.19.
Consider `CSc1nc(C)c(-c2nc(Nc3ccc(N4CCN(C)CC4)cn3)ncc2F)s1` [VIIc], for which the pKi in series [1] is 7.26; in series [2], 8.70.
In the case of `C/C(=N\N=c1/scc(-c2ccc(Br)cc2)n1-c1ccccc1)c1cc2cc(Br)ccc2oc1=O` [Compound 5b, 6-Bromo-3-(1-((4-(4-bromophenyl)-3-phenylthiazol-2(3H)-ylidene)hydrazono)ethyl)-2H-chromen-2-one], the melting point turned out to be 229 °C. The compound further had a pIC50 in series [4] of 6.52. Further, the pIC50 in series [5] was 6.52. This compound also gave a negative logarithm of the IC50 (pIC50) in series [7] of 6.38.
With `CC(=NN=C1SC(CC(=O)O)C(=O)N1C)c1cc2cc(Br)ccc2oc1=O` (stereo not shown) [Compound 6a, 2-(2-((1-(6-Bromo-2-oxo-2H-chromen-3-yl)ethylidene)hydrazono)-3-methyl-4-oxothiazolidin-5-yl)acetic acid], the melting point is 280 °C. The compound further showed a negative logarithm of the IC50 (pIC50) in series [4] of 7.26. Also, the negative-log IC50 (pIC50) in series [5] was 7.02. Further, the pIC50 in series [7] was 6.88.
Regarding `Cc1cc(-c2cnc(Nc3ncccn3)s2)nc(OC2CCCCC2)n1` [Vb], the pIC50 in series [3] (2-aminothiazoles of Banyu) is 7.47.
With `CC(=NN=C1SCC(=O)N1C)c1cc2cc(Br)ccc2oc1=O` [Compound 3a], the melting point was in the range of 250 to 252 °C. Besides, in series [4], the negative-log IC50 (pIC50) is 6.86. The negative-log IC50 (pIC50) in series [5] was 6.25. The negative-log IC50 (pIC50) in series [7] is 6.13.
Regarding `CC(=NN=C1SCC(=O)N1c1ccccc1)c1cc2cc(Br)ccc2oc1=O` [Compound 3b], the pIC50 in series [4] was 6.94; in series [5], 7.25; in series [6] it was 6.90; in series [7] it was 6.90.
`CC(=NN=C1SC(CC(=O)O)C(=O)N1c1ccccc1)c1cc2cc(Br)ccc2oc1=O` (stereo not shown) [Compound 6b, 2-(2-((1-(6-Bromo-2-oxo-2H-chromen-3-yl)ethylidene)hydrazono)-4-oxo-3-phenylthiazolidin-5-yl)acetic acid] came in with a melting point of 251 °C. The same compound showed a negative logarithm of the IC50 (pIC50) in series [4] of 7.26. Besides, the negative logarithm of the IC50 (pIC50) in series [5] is 7.11. This compound also gave a pIC50 in series [7] of 7.00.
As to `O=c1oc2ccc(Br)cc2cc1-c1csc(NN=Cc2ccc([N+](=O)[O-])cc2)n1` [Compound 9d], the pIC50 in series [4] was 6.11; in series [5] it was 6.29; in series [7], 6.05.
For `CN1CC[C@H](c2c(O)cc(O)c3c(=O)cc(-c4ccccc4Cl)oc23)[C@H](O)C1` [Flavopiridol, reference compound], in that order: 8.35, 8.94 and 8.62.
As for `CC(C)(C)c1cnc(CSc2cnc(Nc3ccc(S(=O)(=O)NCCO)cc3)s2)o1` [IX], the pIC50 in series [3] (setting [8]) was 6.63.
As for `CC(=NN=c1scc(-c2ccc(Br)cc2)n1C)c1cc2cc(Br)ccc2oc1=O` [Compound 5a, 6-Bromo-3-(1-((4-(4-bromophenyl)-3-methylthiazol-2(3H)-ylidene)hydrazono)ethyl)-2H-chromen-2-one], the negative-log IC50 (pIC50) in series [4] is 6.99; in series [5], 7.27; in series [6] it was 6.85; in series [7], 7.12.
Compound `CN(C)c1ccc(C=NNc2nc(-c3cc4cc(Br)ccc4oc3=O)cs2)cc1` [Compound 9e] showed a melting point of 253 °C. The compound also showed a pIC50 in series [4] of 6.36. The compound further had a negative-log IC50 (pIC50) in series [5] of 6.62. In series [7], the pIC50 was 6.29.
`Cc1ccc(C=NNc2nc(-c3cc4cc(Br)ccc4oc3=O)cs2)o1` [Compound 9h]: the negative-log IC50 (pIC50) in series [4] was 6.27; in series [5] it was 6.47; in series [7], 6.24.
In the case of `O=c1oc2ccc(Br)cc2cc1-c1csc(NN=Cc2ccc([N+](=O)[O-])o2)n1` [Compound 9i], the pIC50 in series [4] is 6.91; in series [5], 7.12; in series [6], 6.71; in series [7], 6.72.
Compound `O=c1oc2ccc(Br)cc2cc1-c1csc(NN=Cc2ccc(Br)cc2)n1` [Compound 9g] yielded a melting point of 267 °C. The negative logarithm of the IC50 (pIC50) in series [4] is 6.31. In series [5], this compound showed a negative logarithm of the IC50 (pIC50) of 6.36. The negative logarithm of the IC50 (pIC50) in series [7] is 6.13.
Regarding `Cc1cc(-c2cnc(Nc3nccc(CN4CCN(C)CC4)n3)s2)nc(OC2CCCCC2)n1` [Vc], the pIC50 in series [3] (2-aminothiazoles of Banyu) is 8.04.
`CC(=NN=c1scc(-c2ccccc2)n1C)c1cc2cc(Br)ccc2oc1=O` [Compound 4a, 6-Bromo-3-(1-((3-methyl-4-phenylthiazol-2(3H)-ylidene)hydrazono)ethyl)-2H-chromen-2-one] yielded a melting point of 200 °C. The pIC50 in series [4] is 6.44. The compound also gave a negative-log IC50 (pIC50) in series [5] of 6.27. Further, in series [7], the negative logarithm of the IC50 (pIC50) is 6.12.
